Experimental findings from US20090099186A1, “INHIBITORS OF VIRAL REPLICATION” (priority 2005, published 2009) are described below.

This assay deals with T1, full-length NS3 (1-631) protein (HCV NS3 helicase) (Hepatitis C virus genotype 1a, UniProt P27958).
T1 construct: Recombinant, purified, full-length NS3 (1-631) protein
Nature of the assay: HCV Helicase TR-FRET Unwinding Assay. Format: biochemical. The procedure:
HCV Helicase TR-FRET Unwinding Assay
Compound potency was assessed by determining the ability of the compound to inhibit DNA unwinding in an in vitro homogeneous time-resolved fluorescence quench assay. The helicase substrate (Perkin Elmer, TruPoint Helicase Substrate) consisted of partially double-stranded DNA, with one oligonucleotide strand labeled with a fluorescent europium chelate and the other strand labeled with the QSY™ 7 quencher. In the presence of helicase and ATP, this DNA is unwound and a large increase in fluorescence is observed. An excess of an unlabeled oligonucleotide (also from Perkin Elmer, TruPoint Helicase Capture Strand) that is complementary to the quencher strand was included in the assay to prevent reannealing of the europium and QSY-labeled strands.
The assay buffer consisted of 25 mM MOPS (pH 7.0), 500 μM MgCl2, and 0.005% (v/v) Triton X-100, with DMSO being present at a final concentration of 2% (v/v). Recombinant, purified, full-length NS3 (1-631) protein was included in these assays at a final concentration of 2.5 nM. Compound was incubated with NS3 protein for 5 minutes in a 384-well white Proxiplate™ (Perkin Elmer) prior to the addition of TruPoint Helicase Substrate (4 nM final concentration), TruPoint Helicase Capture Strand (15 nM final concentration), and ATP (100 μM final concentration). The final reaction volume was 20 μL. Immediately after the addition of the substrates and capture strand, the initial rates of the unwinding reactions were determined at room temperature via an Envision (Perkin Elmer) plate reader. The rates of reactions containing test compound were compared to those lacking test compound in order to evaluate compound potency. IC50 values were determined using the curve-fitting software XLfit (IDBS).
(Time-resolved FRET reads energy transfer from a long-lived donor to a nearby acceptor.)

Setting [1] is: Table 4, inhibition of DNA unwinding, 2.5 nM NS3, 100 μM ATP.
The mark [2] stands for this setting: second TR-FRET IC50 column (c2) of Table 4, same head as the first, inhibition of DNA unwinding.

T1 sequence (P27958 1027-1657 T1100M/T1173A/K1247Q/A1303G/S1327L/G1556E/R1608W): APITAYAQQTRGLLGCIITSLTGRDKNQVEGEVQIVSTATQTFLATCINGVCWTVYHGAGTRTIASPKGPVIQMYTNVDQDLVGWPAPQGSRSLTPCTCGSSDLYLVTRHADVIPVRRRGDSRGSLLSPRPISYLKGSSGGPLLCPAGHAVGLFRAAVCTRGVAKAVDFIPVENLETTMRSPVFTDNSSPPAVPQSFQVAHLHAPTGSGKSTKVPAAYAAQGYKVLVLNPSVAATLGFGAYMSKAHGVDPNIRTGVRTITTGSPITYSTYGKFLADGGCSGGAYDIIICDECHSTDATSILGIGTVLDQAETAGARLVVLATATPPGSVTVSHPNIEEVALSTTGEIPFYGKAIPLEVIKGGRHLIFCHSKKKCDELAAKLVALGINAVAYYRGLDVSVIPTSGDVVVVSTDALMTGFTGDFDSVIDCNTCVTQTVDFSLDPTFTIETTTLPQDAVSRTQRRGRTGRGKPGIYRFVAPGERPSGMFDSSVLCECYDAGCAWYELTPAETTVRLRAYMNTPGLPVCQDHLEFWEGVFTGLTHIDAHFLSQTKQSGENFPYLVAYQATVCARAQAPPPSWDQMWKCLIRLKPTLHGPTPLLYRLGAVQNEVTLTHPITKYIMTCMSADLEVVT

Broadly, the IC50 is the concentration needed to halve the response being measured. As for `COc1ccccc1Sc1ccc(/C=C/C(=O)N2CCC(C(=O)O)CC2)c(Cl)c1Cl` [Example 32D, (E)-1-(3-(2,3-dichloro-4-(2-methoxyphenylthio)phenyl)acryloyl)piperidine-4-carboxylic acid], the IC50 lay within 10 to 50 µM under setting [1] and 10 to 50 µM under setting [2].
Regarding `O=C(/C=C/c1ccccc1Cl)NCCO` [Example 33], the half-inhibitory concentration (IC50) lay in the range of 10 to 50 µM under setting [1] and 10 to 50 µM under setting [2].
Take `O=C(/C=C/c1ccccc1Cl)N1Cc2ccccc2C1` [Example 34, (E)-3-(2-chlorophenyl)-1-(isoindolin-2-yl)prop-2-en-1-one]: the concentration for half-maximal inhibition (IC50) runs as follows: under setting [1], 10 to 50 µM; under setting [2], 10 to 50 µM.
`O=C(/C=C/c1ccccc1Cl)Nc1ccccc1` [Example 35, (E)-3-(2-chlorophenyl)-N-phenylacrylamide]: the half-maximal inhibitory concentration (IC50) is, setting by setting: under setting [1], 10 to 50 µM; under setting [2], 10 to 50 µM.
